Test results published in US12172974B2 (Biohaven Pharmaceutical Holding Company Ltd., priority 2012, dated 2024).
Entries after “also recorded” stand apart in the source; their conditions may differ.

Test system: not listed separately
Assay: Metabolic stability in pooled human liver microsomes
Type: in vitro ADME
Settings: human liver microsomes 0.5 mg/mL, 1 uM, 37° C., NADPH
Method: (§1) Metabolic Stability: In vitro metabolic stability was determined in pooled mouse or human liver microsomes (BD Gentest) at a protein concentration of 0.5 mg/mL in reaction buffer (100 mM KH2PO4, pH 7.4 and 12 mM MgCl2). Each drug candidate was added to a final concentration of 1 uM. This mixture was pre-warmed to 37° C. for 10 minutes prior to starting the reaction with the addition of β-Nicotinamide adenine dinucleotide 2′-phosphate reduced (NADPH) to a final concentration of 1 mM. A parallel incubation lacking NADPH served as the control. After incubation for 30 min at 37° C., the reactions were quenched by the addition of acetonitrile containing 0.1% formic acid and internal standard, vortex mixed for 2 minutes and centrifuged at 4000 rpm for 10 minutes to pellet the precipitated protein. The resulting supernatant containing the drug candidate and its potential metabolites was diluted 5-fold with water containing 0.1% formic acid and submitted to LC-MS/MS analysis. […]
(§2) LC-MS/MS Analysis: An aliquot from each incubation was analyzed by LC-MS/MS with SRM detection in the positive ionization mode using an ABSciex API 5500 QTrap Mass Spectrometer interfaced via the ABSciex Turbo V IonSpray source (ESI) to an Eksigent ExpressHT LC system. […] A fast gradient, from 15 to 85% organic in 2.5 minutes, with run time of 5.0 minutes, and flow rate of 50 ul/min was utilized. Peak areas were integrated using MultiQuant v2.0 software from ABSciex.

Metabolic Stability human (30 minutes): percent of prodrug metabolized to riluzole | SMILES
0% | CNCCCCC(=O)Nc1nc2ccc(OC(F)(F)F)cc2s1 [Cpd 25, 5-Methylamino-pentanoic acid (6-trifluoromethoxy-benzothiazol-2-yl)-amide]
19% | NCCCCC(=O)Nc1nc2ccc(OC(F)(F)F)cc2s1 [Cpd 26, 5-Amino-pentanoic acid (6-trifluoromethoxy-benzothiazol-2-yl)-amide]

Further lines, the molecule ahead of its results:

SMILES | Metabolic Stability human (30 minutes): percent of prodrug metabolized to riluzole
O=C(CCC(=O)Nc1nc2ccc(OC(F)(F)F)cc2s1)NCc1cccnc1 [Cpd 23, N-Pyridin-3-ylmethyl-N′-(6-trifluoromethoxy-benzothiazol-2-yl)-succinamide] | 4%
O=C(Cc1ccccc1[N+](=O)[O-])Nc1nc2ccc(OC(F)(F)F)cc2s1 [Cpd 27, 2-(2-Nitro-phenyl)-N-(6-trifluoromethoxy-benzothiazol-2-yl)-acetamide] | 22%
Nc1ccc(C(=O)Nc2nc3ccc(OC(F)(F)F)cc3s2)cc1 [Cpd 28, 4-Amino-N-(6-trifluoromethoxy-benzothiazol-2-yl)-benzamide] | 80%

Test system: not listed separately
Assay: Stability in Simulated Intestinal Fluid (SIF)
Type: in vitro ADME
Settings: 37° C., 0.01 mg/mL
Method: (§3) Stability in Simulated Gastric Fluid (SGF) and Simulated Intestinal Fluid (SIF). Procedure from Baudy et. al. (J. Med. Chem. 2009, 52, 771-778) used. The physiological stability of prodrugs was determined by examining the stability of the compound in SGF, and SIF at 37° C. The compounds were prepared in a 9:1 mixture of the appropriate test component (SGF, SIF) and acetonitrile to a final concentration of 0.01 mg/mL. The samples were thoroughly mixed and maintained at 37° C. Each sample was injected consecutively onto an Agilent 1100 system (Luna C18, 3 μm, 50 mm×3 mm; 1 mL/min; mobile phase of 0.1% trifluoroacetic acid in water/0.1% trifluoroacetic acid in acetonitrile) after a 3 h period. The percent remaining of prodrug was calculated by comparing the area of prodrug compound versus riluzole generated. The identities of the parent compounds and conversion products were confirmed by LC/MS.

SIF (3 hours): percent of prodrug metabolized to riluzole | SMILES
0% | CNCCCCC(=O)Nc1nc2ccc(OC(F)(F)F)cc2s1 [Cpd 25, 5-Methylamino-pentanoic acid (6-trifluoromethoxy-benzothiazol-2-yl)-amide]
0% | NCCCCC(=O)Nc1nc2ccc(OC(F)(F)F)cc2s1 [Cpd 26, 5-Amino-pentanoic acid (6-trifluoromethoxy-benzothiazol-2-yl)-amide]

Further lines, the molecule ahead of its results:

SMILES | SIF (3 hours): percent of prodrug metabolized to riluzole
O=C(CCC(=O)Nc1nc2ccc(OC(F)(F)F)cc2s1)NCc1cccnc1 [Cpd 23, N-Pyridin-3-ylmethyl-N′-(6-trifluoromethoxy-benzothiazol-2-yl)-succinamide] | 10%
O=C(Cc1ccccc1[N+](=O)[O-])Nc1nc2ccc(OC(F)(F)F)cc2s1 [Cpd 27, 2-(2-Nitro-phenyl)-N-(6-trifluoromethoxy-benzothiazol-2-yl)-acetamide] | 0%
Nc1ccc(C(=O)Nc2nc3ccc(OC(F)(F)F)cc3s2)cc1 [Cpd 28, 4-Amino-N-(6-trifluoromethoxy-benzothiazol-2-yl)-benzamide] | 0%

Test system: Stage III and IV melanoma
Assay: not given
Settings: 14 days of treatment; cited from earlier work

SMILES | patients with clinical or radiologic evidence of tumor response
Nc1nc2ccc(OC(F)(F)F)cc2s1 [riluzole, 6-(trifluoromethoxy)-1,3-benzothiazol-2-amine] | four of twelve; also recorded: four of 12

Test system: not listed separately
Assay: Metabolic stability in pooled mouse liver microsomes
Type: in vitro ADME
Settings: mouse liver microsomes 0.5 mg/mL, 1 uM, 37° C., NADPH
Method: as §1, §2

Metabolic Stability mouse (30 minutes): percent of prodrug metabolized to riluzole | SMILES
78% | CNCCCCC(=O)Nc1nc2ccc(OC(F)(F)F)cc2s1 [Cpd 25, 5-Methylamino-pentanoic acid (6-trifluoromethoxy-benzothiazol-2-yl)-amide]
66% | NCCCCC(=O)Nc1nc2ccc(OC(F)(F)F)cc2s1 [Cpd 26, 5-Amino-pentanoic acid (6-trifluoromethoxy-benzothiazol-2-yl)-amide]

Continued, molecule first:

SMILES | Metabolic Stability mouse (30 minutes): percent of prodrug metabolized to riluzole
O=C(CCC(=O)Nc1nc2ccc(OC(F)(F)F)cc2s1)NCc1cccnc1 [Cpd 23, N-Pyridin-3-ylmethyl-N′-(6-trifluoromethoxy-benzothiazol-2-yl)-succinamide] | 0%
O=C(Cc1ccccc1[N+](=O)[O-])Nc1nc2ccc(OC(F)(F)F)cc2s1 [Cpd 27, 2-(2-Nitro-phenyl)-N-(6-trifluoromethoxy-benzothiazol-2-yl)-acetamide] | 59%
Nc1ccc(C(=O)Nc2nc3ccc(OC(F)(F)F)cc3s2)cc1 [Cpd 28, 4-Amino-N-(6-trifluoromethoxy-benzothiazol-2-yl)-benzamide] | 24%

Test system: not listed separately
Assay: Plasma stability in fresh mouse plasma
Type: in vitro ADME
Settings: 1 uM, 37° C.
Method: (§4) Plasma Stability: Assessment of plasma stability was carried out by individual incubations of drug candidates in fresh mouse or human control plasma at a concentration of 1 uM for 1 hour at 37° C. After which, the samples were de-proteinized by addition of 2 volumes of acetonitrile containing 0.1% formic acid and internal standard, vortex mixed for 2 minutes and centrifuged at 4000 rpm for 10 minutes to pellet precipitated protein. The resulting supernatant containing the drug candidates was diluted 5-fold with water containing 0.1% formic acid and submitted to LC-MS/MS analysis. All determinations were done in triplicate. […]
as §2

Plasma Stability mouse (1 hour): percent of prodrug metabolized to riluzole | SMILES
0% | CNCCCCC(=O)Nc1nc2ccc(OC(F)(F)F)cc2s1 [Cpd 25, 5-Methylamino-pentanoic acid (6-trifluoromethoxy-benzothiazol-2-yl)-amide]
0% | NCCCCC(=O)Nc1nc2ccc(OC(F)(F)F)cc2s1 [Cpd 26, 5-Amino-pentanoic acid (6-trifluoromethoxy-benzothiazol-2-yl)-amide]

Further lines, the molecule ahead of its results:

SMILES | Plasma Stability mouse (1 hour): percent of prodrug metabolized to riluzole
O=C(CCC(=O)Nc1nc2ccc(OC(F)(F)F)cc2s1)NCc1cccnc1 [Cpd 23, N-Pyridin-3-ylmethyl-N′-(6-trifluoromethoxy-benzothiazol-2-yl)-succinamide] | 26%
O=C(Cc1ccccc1[N+](=O)[O-])Nc1nc2ccc(OC(F)(F)F)cc2s1 [Cpd 27, 2-(2-Nitro-phenyl)-N-(6-trifluoromethoxy-benzothiazol-2-yl)-acetamide] | 0%
Nc1ccc(C(=O)Nc2nc3ccc(OC(F)(F)F)cc3s2)cc1 [Cpd 28, 4-Amino-N-(6-trifluoromethoxy-benzothiazol-2-yl)-benzamide] | 0%

Test system: not listed separately
Assay: Plasma stability in fresh human plasma
Type: in vitro ADME
Settings: 1 uM, 37° C.
Method: as §4, §2

Plasma Stability Human (1 hour): percent of prodrug metabolized to riluzole | SMILES
0% | CNCCCCC(=O)Nc1nc2ccc(OC(F)(F)F)cc2s1 [Cpd 25, 5-Methylamino-pentanoic acid (6-trifluoromethoxy-benzothiazol-2-yl)-amide]
5% | NCCCCC(=O)Nc1nc2ccc(OC(F)(F)F)cc2s1 [Cpd 26, 5-Amino-pentanoic acid (6-trifluoromethoxy-benzothiazol-2-yl)-amide]

The remaining lines, values behind:

SMILES | Plasma Stability Human (1 hour): percent of prodrug metabolized to riluzole
O=C(CCC(=O)Nc1nc2ccc(OC(F)(F)F)cc2s1)NCc1cccnc1 [Cpd 23, N-Pyridin-3-ylmethyl-N′-(6-trifluoromethoxy-benzothiazol-2-yl)-succinamide] | 0%
O=C(Cc1ccccc1[N+](=O)[O-])Nc1nc2ccc(OC(F)(F)F)cc2s1 [Cpd 27, 2-(2-Nitro-phenyl)-N-(6-trifluoromethoxy-benzothiazol-2-yl)-acetamide] | 13%
Nc1ccc(C(=O)Nc2nc3ccc(OC(F)(F)F)cc3s2)cc1 [Cpd 28, 4-Amino-N-(6-trifluoromethoxy-benzothiazol-2-yl)-benzamide] | 0%

Test system: not listed separately
Assay: Stability in Simulated Gastric Fluid (SGF)
Type: in vitro ADME
Settings: 37° C., 0.01 mg/mL
Method: as §3

SGF (3 hours): percent of prodrug metabolized to riluzole | SMILES
0% | CNCCCCC(=O)Nc1nc2ccc(OC(F)(F)F)cc2s1 [Cpd 25, 5-Methylamino-pentanoic acid (6-trifluoromethoxy-benzothiazol-2-yl)-amide]
0% | NCCCCC(=O)Nc1nc2ccc(OC(F)(F)F)cc2s1 [Cpd 26, 5-Amino-pentanoic acid (6-trifluoromethoxy-benzothiazol-2-yl)-amide]

The next lines start with the molecule.

SMILES | SGF (3 hours): percent of prodrug metabolized to riluzole
O=C(CCC(=O)Nc1nc2ccc(OC(F)(F)F)cc2s1)NCc1cccnc1 [Cpd 23, N-Pyridin-3-ylmethyl-N′-(6-trifluoromethoxy-benzothiazol-2-yl)-succinamide] | 0%
O=C(Cc1ccccc1[N+](=O)[O-])Nc1nc2ccc(OC(F)(F)F)cc2s1 [Cpd 27, 2-(2-Nitro-phenyl)-N-(6-trifluoromethoxy-benzothiazol-2-yl)-acetamide] | 0%
Nc1ccc(C(=O)Nc2nc3ccc(OC(F)(F)F)cc3s2)cc1 [Cpd 28, 4-Amino-N-(6-trifluoromethoxy-benzothiazol-2-yl)-benzamide] | 0%
